# Measured values taken from patent US7932246B2, “Histone deacetylase inhibitors” (Chroma Therapeutics Ltd., priority 2005, dated 2011).
# Legend:
# HeLa cells = assay: HeLa cell inhibition assay (SRB cell viability); assay type: cell-based; settings: 72 h, IC50 range
# Method: HeLa cells growing in log phase were harvested and seeded at 1000 cells/well (200 μl final volume) into 96-well tissue culture plates. Following 24 h of cell growth cells were treated with compounds (final concentration of 20 μM). Plates were then re-incubated for a further 72 h before a sulphorhodamine B (SRB) cell viability assay was conducted according to Skehan 1990 J Natl Canc Inst 82, 1107-1112.
# (§1) Data were expressed as a percentage inhibition of the control, measured in the absence of inhibitor, as follows:— % inhibition=100−[(S^i/S^o)×100] where S^i is the signal in the presence of inhibitor and S^o is the signal in the presence of DMSO.
# IC50 values were determined by non-linear regression analysis, after fitting the results of eight data points to the equation for sigmoidal dose response with variable slope (% activity against log concentration of compound), using Graphpad Prism software.
# (§2) IC50 results were allocated to one of 3 ranges as follows: […]
# [1] = target: histone deacetylase activity (HeLa nuclear extract); assay: HDAC fluorescent activity assay (Biomol, Fluor de Lys substrate); assay type: biochemical; settings: IC50 range
# Method: The ability of compounds to inhibit histone deacetylase activities was measured using the commercially available HDAC fluorescent activity assay from Biomol. In brief, the Fluor de Lys™ substrate, a lysine with an epsilon-amino acetylation, is incubated with the source of histone deacetylase activity (HeLa nuclear extract) in the presence or absence of inhibitor. Deacetylation of the substrate sensitises the substrate to Fluor de Lys™ developer, which generates a fluorophore.
# Data are expressed as a percentage of the control, measured in the absence of inhibitor, with background signal being subtracted from all samples, as follows:— % activity=[(S^i−B)/(S^o−B)]×100 where S^i is the signal in the presence of substrate, enzyme and inhibitor, S^o is the signal in the presence of substrate, enzyme and the vehicle in which the inhibitor is dissolved, and B is the background signal measured in the absence of enzyme.
# Histone deacetylase activity from crude nuclear extract derived from HeLa cells was used for screening. The preparation, purchased from 4C (Seneffe, Belgium), was prepared from HeLa cells harvested whilst in exponential growth phase. The nuclear extract is prepared according to Dignam JD1983 Nucl. Acid. […] The final buffer composition was 20 mM Hepes, 100 mM KCl, 0.2 mM EDTA, 0.5 mM DTT, 0.2 mM PMSF and 20% (v/v) glycerol.
# HUT = HUT cell inhibition assay (WST-1 cell viability); assay type: cell-based; settings: HUT cells, 72-96 h, WST-1 assay, IC50 range
# Method: (§3) Cancer cell lines (U937 and HUT) growing in log phase were harvested and seeded at 1000-2000 cells/well (100 μl final volume) into 96-well tissue culture plates. Following 24 h of growth cells were treated with compound. Plates were then re-incubated for a further 72-96 h before a WST-1 cell viability assay was conducted according to the suppliers (Roche Applied Science) instructions.
# as §1
# (§4) Dose response curves were generated from 8 concentrations (top final concentration 10 μM, with 3-fold dilutions), using 6 replicates.
# (§5) IC50 values were determined by non-linear regression analysis, after fitting the results to the equation for sigmoidal dose response with variable slope (% activity against log concentration of compound), using Graphpad Prism software.
# as §2
# U937 = U937 cell inhibition assay (WST-1 cell viability); assay type: cell-based; settings: U937 cells, 72-96 h, WST-1 assay, IC50 range
# Method: as §3, §1, §4, §5, §2
SMILES,"IC50 (HeLa cells; Homo sapiens, HeLa) [µM]",IC50 [1] [µM],"IC50 (U937; Homo sapiens, U-937) [µM]",IC50 (HeLa cells) [µM],IC50 (U937) [µM],IC50 (HUT) [µM]
"O=C(NO)c1cnc(N2CC3C(C2)C3NC(=O)c2cccs2)nc1 (stereo not drawn) [Example 18, N-Hydroxy 2-{6-[(thien-2-ylcarbonyl)amino]-3-azabicyclo[3.1.0]hex-3-yl}pyrimidine-5-carboxamide]",> 3.3,< 0.1,> 3.3,–,–,0.331 to 3.3
"CCCCc1ccc(CNC2C3CN(c4ncc(C(=O)NO)cn4)CC32)cc1 (stereo not drawn) [Example 23, N-Hydroxy 2-[6-(4-butylbenzylamino)-3-azabicyclo[3.1.0]hex-3-yl]pyrimidine-5-carboxamide]",0.331 to 3.3,< 0.1,0.331 to 3.3,–,–,< 0.33
"CC(CNC1C2CN(c3ncc(C(=O)NO)cn3)CC21)c1ccccc1 (stereo not drawn) [Example 24, N-Hydroxy 2-{6-[(2-phenylpropyl)amino]-3-azabicyclo[3.1.0]hex-3-yl}pyrimidine-5-carboxamide]",0.331 to 3.3,< 0.1,< 0.33,–,–,< 0.33
"COc1ccc(CNC2C3CN(c4ncc(C(=O)NO)cn4)CC32)cc1 (stereo not drawn) [Example 26, N-Hydroxy 2-{6-[(4-methoxybenzyl)amino]-3-azabicyclo[3.1.0]hex-3-yl}pyrimidine-5-carboxamide]",–,< 0.1,–,< 0.33,< 0.33,< 0.33
"O=C(NO)c1cnc(N2CC3C(C2)C3NCc2ccc(-c3ccccc3)cc2)nc1 (stereo not drawn) [Example 27, N-Hydroxy 2-{6-[(biphenyl-4-ylmethyl)-amino]-3-aza-bicyclo[3.1.0]hex-3-yl}pyrimidine-5-carboxamide]",< 0.33,< 0.1,< 0.33,–,–,< 0.33
"O=C(NO)c1cnc(N2CC3C(C2)C3NCc2cc(F)cc(F)c2)nc1 (stereo not drawn) [Example 28, N-Hydroxy 2-{6-[(3,5-difluorobenzyl)amino]-3-azabicyclo[3.1.0]hex-3-yl}pyrimidine-5-carboxamide]",< 0.33,< 0.1,< 0.33,–,–,< 0.33
"CC(CCNC1C2CN(c3ncc(C(=O)NO)cn3)CC21)c1ccccc1 (stereo not drawn) [Example 29, N-Hydroxy 2-[6-(3-phenylbutylamino)-3-aza-bicyclo[3.1.0]hex-3-yl]pyrimidine-5-carboxamide]",< 0.33,< 0.1,< 0.33,–,–,< 0.33
"O=C(NO)c1cnc(N2CC3C(C2)C3NCc2ccc(Cl)cc2)nc1 (stereo not drawn) [Example 30, N-Hydroxy 2-{6-[(4-chlorobenzyl)amino]-3-azabicyclo[3.1.0]hex-3-yl}pyrimidine-5-carboxamide]",< 0.33,< 0.1,< 0.33,–,–,< 0.33
"O=C(NO)c1cnc(N2CC3C(C2)C3NCc2csc3ccccc23)nc1 (stereo not drawn) [Example 32, N-Hydroxy 2-{6-[(1-benzothien-3-ylmethyl)amino]-3-azabicyclo[3.1.0]hex-3-yl}pyrimidine-5-carboxamide]",< 0.33,< 0.1,< 0.33,–,–,< 0.33
"O=C(NO)c1cnc(N2CC3C(C2)C3NCc2ccccc2)nc1 (stereo not drawn) [Example 33, N-Hydroxy 2-[6-(benzylamino)-3-azabicyclo[3.1.0]hex-3-yl]pyrimidine-5-carboxamide]",< 0.33,< 0.1,< 0.33,–,–,< 0.33
"O=C(NO)c1cnc(N2CC3C(C2)C3NCCc2ccccc2)nc1 (stereo not drawn) [Example 38, N-Hydroxy 2-{6-[(2-phenylethyl)amino]-3-azabicyclo[3.1.0]hex-3-yl}pyrimidine-5-carboxamide]",0.331 to 3.3,< 0.1,0.331 to 3.3,–,–,< 0.33
"O=C(NO)c1cnc(N2CC3C(C2)C3NC(c2ccccc2)C(F)(F)F)nc1 (stereo not drawn) [Example 40, N-Hydroxy 2-{6-[(2,2,2-trifluoro-1-phenylethyl)amino]-3-azabicyclo[3.1.0]hex-3-yl}pyrimidine-5-carboxamide]",0.331 to 3.3,< 0.1,0.331 to 3.3,–,–,< 0.33
"O=C(NO)c1cnc(N2CC3C(C2)C3NCc2ccc(F)cc2)nc1 (stereo not drawn) [Example 41, N-Hydroxy 2-{6-[(4-fluorobenzyl)amino]-3-azabicyclo[3.1.0]hex-3-yl}pyrimidine-5-carboxamide]",0.331 to 3.3,< 0.1,< 0.33,–,–,< 0.33

# Continued, in another order:
"IC50 (HeLa cells; Homo sapiens, HeLa) [µM]",IC50 [1] [µM],"IC50 (U937; Homo sapiens, U-937) [µM]",IC50 (HeLa cells) [µM],IC50 (U937) [µM],SMILES,IC50 (HUT) [µM]
0.331 to 3.3,< 0.1,0.331 to 3.3,–,–,"O=C(NO)c1cnc(N2CC3C(C2)C3NC(=O)c2ccc3occc3c2)nc1 (stereo not drawn) [Example 16, N-Hydroxy 2-{6-[(1-benzofuran-5-ylcarbonyl)amino]-3-azabicyclo[3.1.0]hex-3-yl}pyrimidine-5-carboxamide]",< 0.33
< 0.33,< 0.1,< 0.33,–,–,"O=C(Cc1ccc(-c2ccccc2)cc1)NC1C2CN(c3ncc(C(=O)NO)cn3)CC21 (stereo not drawn) [Example 19, N-Hydroxy 2-[6-(2-biphenyl-4-yl-acetylamino)-3-azabicyclo[3.1.0]hex-3-yl]pyrimidine-5-carboxamide]",< 0.33
0.331 to 3.3,< 0.1,< 0.33,–,–,"O=C(NO)c1cnc(N2CC3C(C2)C3NCc2ccc3ccccc3c2)nc1 (stereo not drawn) [Example 20, N-Hydroxy 2-{6-[(2-naphthylmethyl)amino]-3-azabicyclo[3.1.0]hex-3-yl}pyrimidine-5-carboxamide]",< 0.33
< 0.33,< 0.1,< 0.33,–,–,"O=C(NO)c1cnc(N2CC3C(C2)C3NCc2ccc(Oc3ccccc3)cc2)nc1 (stereo not drawn) [Example 22, N-Hydroxy 2-[6-(4-phenoxybenzylamino)-3-azabicyclo[3.1.0]hex-3-yl]pyrimidine-5-carboxamide]",< 0.33
0.331 to 3.3,< 0.1,< 0.33,–,–,"N#Cc1ccc(CNC2C3CN(c4ncc(C(=O)NO)cn4)CC32)cc1 (stereo not drawn) [Example 31, N-Hydroxy 2-{6-[(4-cyanobenzyl)amino]-3-azabicyclo[3.1.0]hex-3-yl}pyrimidine-5-carboxamide]",< 0.33
0.331 to 3.3,< 0.1,< 0.33,–,–,"O=C(NO)c1cnc(N2CC3C(C2)C3NCc2ccc(OC(F)(F)F)cc2)nc1 (stereo not drawn) [Example 34, N-Hydroxy 2-{6-[(4-trifluoromethoxybenzyl)amino]-3-azabicyclo[3.1.0]hex-3-yl}pyrimidine-5-carboxamide]",< 0.33
< 0.33,< 0.1,< 0.33,–,–,"O=C(NO)c1cnc(N2CC3C(C2)C3NCc2cc(C(F)(F)F)cc(C(F)(F)F)c2)nc1 (stereo not drawn) [Example 35, N-Hydroxy 2-{6-[(3,5-bistrifluoromethylbenzyl)amino]-3-azabicyclo[3.1.0]hex-3-yl}pyrimidine-5-carboxamide]",< 0.33
< 0.33,< 0.1,< 0.33,–,–,"O=C(NO)c1cnc(N2CC3C(C2)C3NCc2cccc(-c3ccccc3)c2)nc1 (stereo not drawn) [Example 37, N-Hydroxy 2-{6-[(biphenyl-3-ylmethyl)-amino]-3-aza-bicyclo[3.1.0]hex-3-yl}pyrimidine-5-carboxamide]",< 0.33
0.331 to 3.3,< 0.1,< 0.33,–,–,"O=C(NO)c1cnc(N2CC3C(C2)C3NCCC(c2ccccc2)c2ccccc2)nc1 (stereo not drawn) [Example 39, N-Hydroxy 2-[6-(3,3-diphenylpropylamino)-3-azabicyclo[3.1.0]hex-3-yl]pyrimidine-5-carboxamide]",< 0.33
0.331 to 3.3,< 0.1,0.331 to 3.3,–,–,O=C(NO)c1cnc(N2CC3C(C2)C3NCc2ccc(C(F)(F)F)cc2)nc1 (stereo not drawn) [Example 42],< 0.33
< 0.33,< 0.1,< 0.33,–,–,"O=C(NO)c1cnc(N2CC3C(C2)C3NCc2ccc3ccccc3n2)nc1 (stereo not drawn) [Example 43, N-Hydroxy 2-{6-[(quinolin-2-ylmethyl)amino]-3-azabicyclo[3.1.0]hex-3-yl}pyrimidine-5-carboxamide]",< 0.33
